Experimental findings from patent US9587171B2, “Ammonium salts of chelating agents and their use in oil and gas field applications” (AKZO NOBEL CHEMICALS INTERNATIONAL B.V., priority 2010, dated 2017) are described below.

This data set can be described thus: Descaling efficiency for iron sulfide (FeS) at pH 3.8 as a function of temperature. The class given is physicochemical. To be noted: 20° C., 24 hours, FIG. 4. Here is the method: The Parr bomb was placed in an oven at 90° C. The beaker glass was closed with parafilm. After 24 hours at temperature the samples were filtered by a 0.45 micron filter prior to ICP-ES analysis. The descaling efficiency was calculated from the iron concentration in the liquid and the initial amount of FeS.

For the compound `O=C([O-])CC[C@@H](C(=O)[O-])N(CC(=O)[O-])CC(=O)[O-].[Na+].[Na+].[Na+].[Na+]` [sodium GLDA], the “descaling efficiency for FeS at low temperature” value is on record as “dissolved more FeS at low temperature”.
